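Grown in 96-well plates, cells were treated for 48 hours with each compound at five concentrations. Insufficient inhibition: endpoint recorded as highest concentration tested. TGI: concentration producing complete growth inhibition.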
Tests used:
Experiment in all cases: NCI tumour cell line growth inhibition, 48 h
[1] = test system: SNB-19 CNS
[2] = test system: SF-539 CNS
[3] = test system: NCI-H226 lung
[4] = test system: NCI-H23 lung
[5] = test system: HCT-15 colon
[6] = test system: HCC-2998 colon
[7] = test system: A498 renal
[8] = test system: NCI-H460 lung
[9] = test system: OVCAR-3 ovarian
[10] = test system: SK-MEL-28 melanoma
[11] = test system: MOLT-4 leukemia
[12] = test system: SK-OV-3 ovarian
[13] = test system: UO-31 renal
[14] = test system: NCI/ADR-RES ovarian
[15] = test system: OVCAR-5 ovarian
[16] = test system: MCF7 breast
[17] = test system: A549 NSCLC
[18] = test system: COLO 205 colon
[19] = test system: SF-295 CNS
[20] = test system: OVCAR-8 ovarian

Row | Structure (SMILES) | TGI [1] [µM] | TGI [2] [µM] | TGI [3] [µM] | TGI [4] [µM] | TGI [5] [µM] | TGI [6] [µM] | TGI [7] [µM] | TGI [8] [µM] | TGI [9] [µM] | TGI [10] [µM] | TGI [11] [µM] | TGI [12] [µM] | TGI [13] [µM] | TGI [14] [µM] | TGI [15] [µM] | TGI [16] [µM] | TGI [17] [µM] | TGI [18] [µM] | TGI [19] [µM] | TGI [20] [µM]
1 | CCCn1cc2c3c(cccc31)C1C=C(C)CN(C)C1C2 (stereo not given) | 62.1 | 59.5 | 40.9 | 61.8 | 49 | 38 | 37.8 | 36.6 | 52.6 | 49.9 | 40.2 | 71.4 | 38.8 | 58.8 | 57 | 37.8 | 70.5 | 33.3 | 55.2 | 66.5
2 | CCOC(=O)c1csc(NC(=O)CCN2CCN(C)CC2)n1 | > 100 | > 100 | > 100 | > 100 | > 100 | > 100 | > 100 | > 100 | > 100 | > 100 | > 100 | > 100 | > 100 | > 100 | > 100 | > 100 | > 100 | > 100 | > 100 | > 100
3 | COc1cc(N=Nc2ccc(OC)c(S(=O)(=O)O)c2)c(C)cc1N=Nc1ccc(/C=C/c2ccc(N=[N+]([O-])c3ccc(/C=C/c4ccc(N=Nc5cc(C)c(N=Nc6ccc(OC)c(S(=O)(=O)O)c6)cc5OC)cc4S(=O)(=O)O)c(S(=O)(=O)O)c3)cc2S(=O)(=O)O)c(S(=O)(=O)O)c1 | > 100 | > 100 | > 100 | > 100 | > 100 | > 100 | > 100 | > 100 | > 100 | > 100 | > 100 | > 100 | > 100 | > 100 | > 100 | > 100 | > 100 | > 100 | > 100 | > 100

Reference: PubChem BioAssay (NCI)
